Experiments:
Aedes aegypti = assay: Warm Body assay, mosquito landings on treated warm body; format: in vivo; details: Aedes aegypti, read-out: Percentage of repellence of mosquitoes Aedes aegypti landing on the warm body
How it was run: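 Compounds in ethanol (100 μL, various concentrations) were applied to a sandblasted glass dish covering the warm body (28.3 cm^2), with ethanol as control. Landings were counted automatically from 30 non-blood-fed, sugar-fed Aedes aegypti Rockefeller females aged 5–10 days, under 150 lux.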

Anopheles gambiae = assay: as above; format: in vivo
Experimental: Anopheles gambiae is also a model organism as it is anthropophilic and transmits malaria.
The controlling effect according to the present invention was assessed using an adapted Warm Body assay as defined in Kröber T, Kessler S, Frei J, Bourquin M, Guerin P M. 2010. J Am Mosq Control Assoc. 26: 381-386. In this in-vitro assay the number of mosquito landing on a warm body, simulating an attractive host treated with the tested stimuli, was measured in order to assess the repellence effect.
On the sandblasted glass Petri dish covering the warm body (28.3 cm^2), 100 μL of the compounds diluted at different concentrations in ethanol was applied. The number of mosquito landing on the warm body was counted for each stimulus and pure ethanol (solvent) as control.

**Q.** With CCCc1cc(OC)c(OC)c(OC)c1 [compound 1975, 1,2,3-trimethoxy-5-propylbenzene] as the molecule, how does the pest or weed control at 3.2 µg/mL (Aedes aegypti; 0.0032 mg/mL (Table 1)) read?
**A.** 33%

**Q.** And the pest or weed control at 7.1 µg/mL (Aedes aegypti; 0.0071 mg/mL (Table 1))?
**A.** 10%

**Q.** And the pest or weed control at 16 µg/mL (Aedes aegypti; 0.016 mg/mL (Table 1))?
**A.** 0%

**Q.** What about the pest or weed control at 35.7 µg/mL (Aedes aegypti; 0.0357 mg/mL (Table 1)) of the same molecule?
**A.** 66%

**Q.** And the pest or weed control at 53 µg/mL (Aedes aegypti; 0.053 mg/mL (Table 1))?
**A.** 30%

**Q.** And the pest or weed control at 80 µg/mL (Aedes aegypti; 0.08 mg/mL (Table 1))?
**A.** 93%

**Q.** What about the pest or weed control at 119 µg/mL (Aedes aegypti; 0.119 mg/mL (Table 1)) of the same molecule?
**A.** 36%

**Q.** What about the pest or weed control at 178 µg/mL (Aedes aegypti; 0.178 mg/mL (Table 1)) of the same molecule?
**A.** 83%

**Q.** And the pest or weed control at 267 µg/mL (Aedes aegypti; 0.267 mg/mL (Table 1))?
**A.** 87%

**Q.** What about the pest or weed control at 400 µg/mL (Aedes aegypti; 0.4 mg/mL (Table 1)) of the same molecule?
**A.** 94%

**Q.** And the pest or weed control at 598 µg/mL (Aedes aegypti; 0.598 mg/mL (Table 1))?
**A.** 99%

**Q.** And the pest or weed control at 890 µg/mL (Aedes aegypti; 0.89 mg/mL (Table 1))?
**A.** 95%

**Q.** What about the pest or weed control at 2000 µg/mL (Aedes aegypti; 2 mg/mL (Table 1)) of the same molecule?
**A.** 96%

**Q.** And the pest or weed control at 4470 µg/mL (Aedes aegypti; 4.47 mg/mL (Table 1))?
**A.** 98%

**Q.** What about the pest or weed control at 10000 µg/mL (Aedes aegypti; 10 mg/mL (Table 1)) of the same molecule?
**A.** 96%

**Q.** What about the pest or weed control at 3.2 µg/mL (Anopheles gambiae; Anopheles gambiae, 0.0032 mg/mL (Table 5), read-out: Percentage of repellence of mosquitoes Anopheles gambiae landing on the warm body) of the same molecule?
**A.** 0%

**Q.** And the pest or weed control at 7.1 µg/mL (Anopheles gambiae; Anopheles gambiae, 0.0071 mg/mL (Table 5), read-out: Percentage of repellence of mosquitoes Anopheles gambiae landing on the warm body)?
**A.** 5%

**Q.** What about the pest or weed control at 16 µg/mL (Anopheles gambiae; Anopheles gambiae, 0.016 mg/mL (Table 5), read-out: Percentage of repellence of mosquitoes Anopheles gambiae landing on the warm body) of the same molecule?
**A.** 78%

**Q.** And the pest or weed control at 53 µg/mL (Anopheles gambiae; Anopheles gambiae, 0.053 mg/mL (Table 5), read-out: Percentage of repellence of mosquitoes Anopheles gambiae landing on the warm body)?
**A.** 23%

**Q.** And the pest or weed control at 80 µg/mL (Anopheles gambiae; Anopheles gambiae, 0.08 mg/mL (Table 5), read-out: Percentage of repellence of mosquitoes Anopheles gambiae landing on the warm body)?
**A.** 0%

**Q.** And the pest or weed control at 400 µg/mL (Anopheles gambiae; Anopheles gambiae, 0.4 mg/mL (Table 5), read-out: Percentage of repellence of mosquitoes Anopheles gambiae landing on the warm body)?
**A.** 94%

**Q.** What about the pest or weed control at 2000 µg/mL (Anopheles gambiae; Anopheles gambiae, 2 mg/mL (Table 5), read-out: Percentage of repellence of mosquitoes Anopheles gambiae landing on the warm body) of the same molecule?
**A.** 95%

**Q.** And the pest or weed control at 4470 µg/mL (Anopheles gambiae; Anopheles gambiae, 4.47 mg/mL (Table 5), read-out: Percentage of repellence of mosquitoes Anopheles gambiae landing on the warm body)?
**A.** 100%

**Q.** What about the pest or weed control at 10000 µg/mL (Anopheles gambiae; Anopheles gambiae, 10 mg/mL (Table 5), read-out: Percentage of repellence of mosquitoes Anopheles gambiae landing on the warm body) of the same molecule?
**A.** 98%

**Q.** And the repulsion (Anopheles gambiae; all doses ≥0.04% applied on the Warm Body (Table 5))?
**A.** > 90%
